The target of assay [1] is T1, Farnesyl pyrophosphate synthase (Rattus norvegicus, UniProt P05369).
T1 sequence (P05369 whole entry): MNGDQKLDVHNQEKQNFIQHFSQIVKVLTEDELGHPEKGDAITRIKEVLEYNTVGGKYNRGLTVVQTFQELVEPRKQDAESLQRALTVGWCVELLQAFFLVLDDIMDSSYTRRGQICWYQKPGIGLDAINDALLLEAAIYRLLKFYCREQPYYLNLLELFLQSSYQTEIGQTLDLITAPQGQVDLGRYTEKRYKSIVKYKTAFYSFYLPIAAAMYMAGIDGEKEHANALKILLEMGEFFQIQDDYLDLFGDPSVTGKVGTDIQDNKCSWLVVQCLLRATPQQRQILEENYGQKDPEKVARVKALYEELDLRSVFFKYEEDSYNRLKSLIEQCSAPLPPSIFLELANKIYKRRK
Nature of the assay: Binding affinity to rat FPPS expressed in Escherichia coli BL21 (DE3) by isothermal titration calorimetry.

In assay [2] the target is T2, Farnesyl pyrophosphate synthase (Rattus norvegicus) (UniProt P05369).
T2 sequence (whole entry): T1 sequence (P05369 whole entry)
As to the kind of experiment: Inhibition of rat FPPS expressed in Escherichia coli BL21 (DE3) using GPP and IPP as substrate at 10 uM incubated for 10 mins by microplate reader.

What is called Kd is the equilibrium constant for the complex coming apart. Low values mean a tighter complex, high ones a looser complex. Broadly, the inhibition is the drop in the measured response relative to a control, in per cent. A low value points to a response near the control.

In the case of `CC(=O)N[C@H]1[C@H](OCc2ccccc2)O[C@H](CO)[C@@H](O)[C@@H]1O`, the dissociation constant Kd in assay [1] was determined as 48.1 µM. Besides, the inhibition in assay [2] was 29.9%.

In turn, `Cc1c(O[C@@H]2O[C@H](CO)[C@@H](O)[C@H](O)[C@H]2O)ccc2c3c(c(=O)oc12)CCCCC3` yielded a Kd in assay [1] of 53.8 µM. The molecule also had an inhibition in assay [2] of 17.3%.

Values taken from ChEMBL document CHEMBL4715844, “Structure-based virtual screening and biological evaluation of novel non-bisphosphonate farnesyl pyrophosphate synthase inhibitors” (Eur J Med Chem, 2020).
